These results are taken from patent US11174268B2, “Benzenesulfonamide compouds and their use as therapeutic agents” (Xenon Pharmaceuticals Inc., priority 2016, dated 2021).

Counter-ions that a name gives are not always drawn.

In series [1] the target is T1, NaV1.6 (Homo sapiens (Human), UniProt Q9UQD0). The series can be described thus: Sodium Influx Assay (Flux), NaV1.6.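 Note: Tetracycline-induced cells, compounds applied for one hour at room temperature with modulators holding channels open, IC50 from percent inhibition of sodium influx.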 The following applies: Trex HEK293 cells, ANG2 dye, inactivated state. Type of series: cell-based.
T1 sequence (Q9UQD0 whole entry): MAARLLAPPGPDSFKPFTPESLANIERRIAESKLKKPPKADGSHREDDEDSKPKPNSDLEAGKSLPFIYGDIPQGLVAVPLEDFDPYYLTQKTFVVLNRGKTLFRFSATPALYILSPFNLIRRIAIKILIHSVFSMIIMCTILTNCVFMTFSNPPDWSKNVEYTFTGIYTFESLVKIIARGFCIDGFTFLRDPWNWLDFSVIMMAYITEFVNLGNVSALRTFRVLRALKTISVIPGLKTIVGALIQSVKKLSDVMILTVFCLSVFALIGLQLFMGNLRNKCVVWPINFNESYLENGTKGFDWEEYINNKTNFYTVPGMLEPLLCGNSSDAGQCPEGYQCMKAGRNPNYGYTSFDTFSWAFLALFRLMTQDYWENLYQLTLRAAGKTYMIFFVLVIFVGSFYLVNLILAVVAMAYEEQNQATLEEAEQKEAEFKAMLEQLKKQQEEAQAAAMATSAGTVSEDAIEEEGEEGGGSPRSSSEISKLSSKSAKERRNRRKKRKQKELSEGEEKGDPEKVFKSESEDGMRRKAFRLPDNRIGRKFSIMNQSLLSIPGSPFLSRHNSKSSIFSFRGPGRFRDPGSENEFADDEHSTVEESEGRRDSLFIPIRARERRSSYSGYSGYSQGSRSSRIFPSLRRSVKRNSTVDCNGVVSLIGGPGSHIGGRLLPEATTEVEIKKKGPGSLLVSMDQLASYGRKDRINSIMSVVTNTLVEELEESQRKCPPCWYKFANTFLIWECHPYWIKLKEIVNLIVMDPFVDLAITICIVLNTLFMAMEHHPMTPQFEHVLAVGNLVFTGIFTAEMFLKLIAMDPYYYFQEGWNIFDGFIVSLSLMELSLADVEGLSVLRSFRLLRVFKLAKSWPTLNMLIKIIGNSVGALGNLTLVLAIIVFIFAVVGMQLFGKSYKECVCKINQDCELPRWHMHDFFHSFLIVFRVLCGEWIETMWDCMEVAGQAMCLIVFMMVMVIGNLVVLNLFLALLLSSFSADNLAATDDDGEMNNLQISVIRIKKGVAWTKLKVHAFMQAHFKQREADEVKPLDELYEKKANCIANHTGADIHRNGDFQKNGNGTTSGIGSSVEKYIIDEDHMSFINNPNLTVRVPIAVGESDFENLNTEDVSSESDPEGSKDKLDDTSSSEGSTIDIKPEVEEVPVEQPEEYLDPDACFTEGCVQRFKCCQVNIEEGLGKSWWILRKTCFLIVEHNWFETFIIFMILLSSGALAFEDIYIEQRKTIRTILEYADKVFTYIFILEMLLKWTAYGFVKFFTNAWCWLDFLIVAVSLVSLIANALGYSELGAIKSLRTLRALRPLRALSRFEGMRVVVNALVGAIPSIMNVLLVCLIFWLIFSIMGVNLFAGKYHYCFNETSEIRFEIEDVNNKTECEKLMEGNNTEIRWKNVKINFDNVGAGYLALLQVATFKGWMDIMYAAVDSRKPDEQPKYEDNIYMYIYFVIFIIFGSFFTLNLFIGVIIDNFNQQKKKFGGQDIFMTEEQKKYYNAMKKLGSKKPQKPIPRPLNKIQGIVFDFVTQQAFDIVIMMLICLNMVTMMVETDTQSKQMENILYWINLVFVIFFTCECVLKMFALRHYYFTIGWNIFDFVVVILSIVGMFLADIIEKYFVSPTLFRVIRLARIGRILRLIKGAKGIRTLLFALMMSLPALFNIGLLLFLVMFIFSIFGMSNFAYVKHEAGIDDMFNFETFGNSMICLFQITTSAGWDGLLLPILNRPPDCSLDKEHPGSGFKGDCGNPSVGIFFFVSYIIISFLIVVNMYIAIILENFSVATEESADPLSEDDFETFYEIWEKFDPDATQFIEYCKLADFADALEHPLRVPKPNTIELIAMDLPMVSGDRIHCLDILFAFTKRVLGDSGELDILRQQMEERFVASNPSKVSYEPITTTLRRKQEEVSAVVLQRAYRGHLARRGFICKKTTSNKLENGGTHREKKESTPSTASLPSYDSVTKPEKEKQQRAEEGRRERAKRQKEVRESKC
Series [2] deals with T1, NaV1.6. Nature of the series: Electrophysiological Assay (EP), patch voltage clamp, NaV1.6.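 Note: sodium current recorded at ambient temperature, channels held inactivated then briefly repolarized to −150 mV for 20 ms before a test pulse, control currents in 0.5% DMSO.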 The series is classed as cell-based. The following applies: HEK-293 cells, whole-cell patch clamp. (In general: Patch clamp records ionic current or voltage across a cell membrane.)
The target of another series is NaV1.1 (Homo sapiens (Human), UniProt P35498). Nature of the series: Sodium Influx Assay (Flux), NaV1.1.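 Note: channels co-expressed with human β1 subunit and held open by modulators, cells exposed to compounds for one hour at room temperature, IC50 from percent inhibition of influx.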 The series is classed as cell-based. The settings on record: Trex HEK293 cells, ANG2 dye, inactivated state.
The target of a further series is NaV1.5 (Homo sapiens (Human), UniProt Q14524). Nature of the series: Sodium Influx Assay (Flux), NaV1.5. The settings on record: read-out: Flux NaV1.5 IC50; Trex HEK293 cells, ANG2 dye, inactivated state.
Chain of NaV1.5 (Q14524 other isoform, or with tags, fused parts or gaps): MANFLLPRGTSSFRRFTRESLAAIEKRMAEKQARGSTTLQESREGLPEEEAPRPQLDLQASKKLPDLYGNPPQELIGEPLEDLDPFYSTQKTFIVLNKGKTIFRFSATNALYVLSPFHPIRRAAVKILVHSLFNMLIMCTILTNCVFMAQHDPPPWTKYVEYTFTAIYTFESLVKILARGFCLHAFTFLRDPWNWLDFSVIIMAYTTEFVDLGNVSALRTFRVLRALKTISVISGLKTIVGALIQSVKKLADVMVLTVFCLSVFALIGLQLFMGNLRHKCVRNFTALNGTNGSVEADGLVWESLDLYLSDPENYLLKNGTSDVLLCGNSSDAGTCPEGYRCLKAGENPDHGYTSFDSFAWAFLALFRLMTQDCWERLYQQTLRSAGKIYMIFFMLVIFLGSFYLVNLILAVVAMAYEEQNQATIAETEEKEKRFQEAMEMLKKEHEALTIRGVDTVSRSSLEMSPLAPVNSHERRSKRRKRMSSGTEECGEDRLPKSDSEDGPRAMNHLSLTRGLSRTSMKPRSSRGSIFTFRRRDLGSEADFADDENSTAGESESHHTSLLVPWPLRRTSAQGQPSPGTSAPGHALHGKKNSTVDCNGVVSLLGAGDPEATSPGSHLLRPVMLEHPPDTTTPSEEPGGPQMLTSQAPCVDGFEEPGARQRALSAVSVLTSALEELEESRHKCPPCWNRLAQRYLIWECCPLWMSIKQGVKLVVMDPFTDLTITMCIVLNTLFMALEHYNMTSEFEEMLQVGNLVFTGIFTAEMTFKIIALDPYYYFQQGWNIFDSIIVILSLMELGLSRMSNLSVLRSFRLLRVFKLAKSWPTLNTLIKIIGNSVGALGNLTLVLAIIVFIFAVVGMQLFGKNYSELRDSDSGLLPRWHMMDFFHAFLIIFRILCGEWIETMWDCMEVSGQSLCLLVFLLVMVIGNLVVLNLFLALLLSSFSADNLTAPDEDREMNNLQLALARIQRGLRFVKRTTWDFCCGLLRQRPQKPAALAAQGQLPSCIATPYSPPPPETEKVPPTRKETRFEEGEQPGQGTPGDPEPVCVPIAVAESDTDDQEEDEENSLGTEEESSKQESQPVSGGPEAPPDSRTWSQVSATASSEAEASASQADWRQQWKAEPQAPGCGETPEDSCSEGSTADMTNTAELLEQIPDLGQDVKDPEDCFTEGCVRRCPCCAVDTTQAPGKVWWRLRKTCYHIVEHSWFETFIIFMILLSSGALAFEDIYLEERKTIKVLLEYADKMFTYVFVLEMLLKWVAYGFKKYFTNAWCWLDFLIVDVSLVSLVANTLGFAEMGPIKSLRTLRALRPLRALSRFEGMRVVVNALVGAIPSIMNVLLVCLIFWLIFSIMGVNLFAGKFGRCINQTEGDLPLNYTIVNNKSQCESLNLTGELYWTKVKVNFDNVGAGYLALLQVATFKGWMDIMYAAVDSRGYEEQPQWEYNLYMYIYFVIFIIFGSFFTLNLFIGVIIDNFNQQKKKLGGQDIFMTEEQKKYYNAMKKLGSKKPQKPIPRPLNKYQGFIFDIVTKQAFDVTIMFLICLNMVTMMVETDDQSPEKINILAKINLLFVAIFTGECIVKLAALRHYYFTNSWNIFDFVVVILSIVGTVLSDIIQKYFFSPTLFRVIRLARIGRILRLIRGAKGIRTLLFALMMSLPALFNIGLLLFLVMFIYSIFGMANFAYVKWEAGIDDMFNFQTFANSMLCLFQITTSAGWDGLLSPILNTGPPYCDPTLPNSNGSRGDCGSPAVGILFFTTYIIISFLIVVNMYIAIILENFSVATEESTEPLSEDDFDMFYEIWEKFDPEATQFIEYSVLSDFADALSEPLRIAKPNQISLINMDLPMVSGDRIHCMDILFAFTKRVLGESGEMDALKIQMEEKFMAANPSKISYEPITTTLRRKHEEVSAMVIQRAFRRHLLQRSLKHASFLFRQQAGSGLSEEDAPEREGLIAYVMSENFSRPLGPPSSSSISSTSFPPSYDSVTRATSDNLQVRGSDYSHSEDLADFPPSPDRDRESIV

Take `CC[C@H](Nc1ccc(S(=O)(=O)Nc2ncns2)cc1Cl)c1ccccc1` [Example 32, (S)-3-chloro-4-((1-phenylpropyl)amino)-N-(1,2,4-thiadiazol-5-yl)benzenesulfonamide]: the IC50 against NaV1.6 [1] was 92 nM; at NaV1.6 [2] it was 23 nM; against NaV1.1 it was 1.06 µM; at NaV1.5, 12.8 µM.
On to `CCC(Nc1cc(F)c(S(=O)(=O)Nc2ncns2)cc1F)c1ccccc1` (stereo not drawn) [Example 85, 2,5-difluoro-4-((1-phenylpropyl)amino)-N-(1,2,4-thiadiazol-5-yl)benzenesulfonamide], for which the IC50 is 107 nM on NaV1.6 [1], 78 nM at NaV1.6 [2], 0.516 µM against NaV1.1 and 30 µM at NaV1.5.
As to `CCC(Nc1cc(F)c(S(=O)(=O)Nc2cccc(F)n2)cc1Cl)c1ccccc1` (stereo not drawn) [Example 86, 5-chloro-2-fluoro-N-(6-fluoropyridin-2-yl)-4-((1-phenylpropyl)amino)benzenesulfonamide], the IC50 amounted to 4060 nM on NaV1.6 [1], 558 nM against NaV1.6 [2], 16.6 µM against NaV1.1 and 12.7 µM at NaV1.5.
The matching figures for `COC1(C)CN(Cc2cccc(F)c2CNc2cc(F)c(S(=O)(=O)Nc3cscn3)c(F)c2)C1` [Example 172, 2,6-difluoro-4-((2-fluoro-6-((3-methoxy-3-methylazetidin-1-yl)methyl)benzyl)amino)-N-(thiazol-4-yl)benzenesulfonamide formate]: 78 nM, 23 nM, 25.8 µM and 30 µM.
For `O=S(=O)(Nc1ccsn1)c1c(F)cc(NCc2c(F)cccc2CN2CCC2)cc1F` [Example 188, 4-((2-(azetidin-1-ylmethyl)-6-fluorobenzyl)amino)-2,6-difluoro-N-(isothiazol-3-yl)benzenesulfonamide 2,2,2-trifluoroacetate], the IC50 on NaV1.6 [1] was 25 nM; against NaV1.6 [2], 12 nM; at NaV1.1, 9.2 µM; on NaV1.5, 30 µM.
Turning to `O=S(=O)(Nc1ccon1)c1c(F)cc(NCc2c(F)cccc2CN2CCC2)cc1F` [Example 204, 4-((2-(azetidin-1-ylmethyl)-6-fluorobenzyl)amino)-2,6-difluoro-N-(isoxazol-3-yl)benzenesulfonamide 2,2,2-trifluoroacetate], the IC50 came out at 187 nM at NaV1.6 [1], 81 nM against NaV1.6 [2], 30 µM at NaV1.1 and 23.1 µM on NaV1.5.
Consider `Cc1c(NCc2c(F)cccc2CN2CCC2)ccc(S(=O)(=O)Nc2ccon2)c1F` [Example 315, 4-((2-(azetidin-1-ylmethyl)-6-fluorobenzyl)amino)-2-fluoro-N-(isoxazol-3-yl)-3-methylbenzenesulfonamide 2,2,2-trifluoroacetate], for which the values for the IC50 at NaV1.6 [1], against NaV1.1 and on NaV1.5 were 270 nM, 30 µM and 30 µM, respectively.
`O=S(=O)(Nc1cnsc1)c1c(F)cc(NCc2c(F)cccc2CN2CCC2)cc1F` [Example 318, 4-((2-(azetidin-1-ylmethyl)-6-fluorobenzyl)amino)-2,6-difluoro-N-(isothiazol-4-yl)benzenesulfonamide]: the IC50 against NaV1.6 [1] worked out at 6030 nM; on NaV1.1, 20.4 µM; on NaV1.5, 17.3 µM.
Consider `O=S(=O)(Nc1cscn1)c1c(F)cc(NCc2ccccc2CCN2CC(F)(F)C2)cc1F` [Example 319, 4-((2-(2-(3,3-difluoroazetidin-1-yl)ethyl)benzyl)amino)-2,6-difluoro-N-(thiazol-4-yl)benzenesulfonamide], for which the values for the IC50 against NaV1.6 [1], against NaV1.1 and at NaV1.5 were 2310 nM, 18 µM and 20 µM, respectively.
For the molecule `O=S(=O)(Nc1cscn1)c1c(F)cc(NCc2ccccc2CCN2CC(F)C2)cc1F` [Example 320, 4-((2-(2-(3-fluoroazetidin-1-yl)ethyl)benzyl)amino)-2,6-difluoro-N-(thiazol-4-yl)benzenesulfonamide formate], the 50% inhibitory concentration (IC50) against NaV1.6 [1] was determined as 55 nM; against NaV1.1, 6.5 µM; on NaV1.5, 17.9 µM.
On to `O=S(=O)(Nc1cscn1)c1cc(Cl)c(N[C@@H]2C[C@H](N3CCC3)c3ccccc32)cc1F` [Example 321, 4-(((1R,3S)-3-(azetidin-1-yl)-2,3-dihydro-1H-inden-1-yl)amino)-5-chloro-2-fluoro-N-(thiazol-4-yl)benzenesulfonamide formate], for which the IC50 was 91 nM on NaV1.6 [1], 4.77 µM against NaV1.1 and 28.1 µM at NaV1.5.
Turning to `C=Cc1cc(S(=O)(=O)Nc2cscn2)c(F)cc1NCc1ccccc1CN1CCC1` [Example 323, 4-((2-(azetidin-1-ylmethyl)benzyl)amino)-2-fluoro-N-(thiazol-4-yl)-5-vinylbenzenesulfonamide formate], the figures for the IC50 against NaV1.6 [1], against NaV1.1 and on NaV1.5 were 518 nM, 9.38 µM and 15 µM, respectively.
As for `O=S(=O)(Nc1cccc(F)n1)c1c(F)cc(NCc2ccccc2CN2CCC2)cc1F` [Example 324, 4-((2-(azetidin-1-ylmethyl)benzyl)amino)-2,6-difluoro-N-(6-fluoropyridin-2-yl)benzenesulfonamide], the IC50 at NaV1.6 [1] came to 647 nM; at NaV1.1, 18.9 µM; at NaV1.5, 30 µM.
Consider `Cc1cc(S(=O)(=O)Nc2cccc(F)n2)c(F)cc1NCc1ccccc1CN1CCC1` [Example 329, 4-((2-(azetidin-1-ylmethyl)benzyl)amino)-2-fluoro-N-(6-fluoropyridin-2-yl)-5-methylbenzenesulfonamide], for which the IC50 on NaV1.6 [1] was found to be 214 nM; on NaV1.1 it was 8.12 µM; on NaV1.5, 28.4 µM.
As for `O=S(=O)(Nc1nccs1)c1cc(Cl)c(N[C@H](c2ccccc2F)C(F)(F)F)cc1F` [Example 332, (R)-5-chloro-2-fluoro-N-(thiazol-2-yl)-4-((2,2,2-trifluoro-1-(2-fluorophenyl)ethyl)amino)benzenesulfonamide], the values for the IC50 against NaV1.6 [1], against NaV1.1 and on NaV1.5 were 275 nM, 0.831 µM and 7.24 µM, respectively.
In the same order, the values of `CC1(F)CN(Cc2cccc(F)c2CNc2cc(F)c(S(=O)(=O)Nc3ccon3)c(F)c2)C1` [Example 337, 2,6-difluoro-4-((2-fluoro-6-((3-fluoro-3-methylazetidin-1-yl)methyl)benzyl)amino)-N-(isoxazol-3-yl)benzenesulfonamide formate] are 266 nM, 14.3 µM and 30 µM.
For `CC[C@H](Oc1cc(F)c(S(=O)(=O)Nc2cscn2)cc1Cl)c1ccccc1F` [Example 338, (S)-5-chloro-2-fluoro-4-(1-(2-fluorophenyl)propoxy)-N-(thiazol-4-yl)benzenesulfonamide], the IC50 came out at 1620 nM against NaV1.6 [1], 5.71 µM against NaV1.1 and 2.65 µM on NaV1.5.
“(R)-5-chloro-2-fluoro-4-((1-(isoquinolin-8-yl)ethyl)amino)-N-(thiazol-2-yl)benzenesulfonamide [Example 13]”: the IC50 on NaV1.6 [1] turned out to be 5890 nM; at NaV1.1, 30 µM; at NaV1.5 it was 30 µM.
Turning to “(S)-5-chloro-2-fluoro-4-((1-(isoquinolin-8-yl)ethyl)amino)-N-(thiazol-2-yl)benzenesulfonamide [Example 12]”, the results for the IC50 against NaV1.6 [1], at NaV1.1 and at NaV1.5 were 1980 nM, 30 µM and 30 µM, respectively.

The term IC50 denotes the midpoint of a concentration-inhibition curve.
